Values of other authors, collected in patent US20210029988A1, “PEST REPELLENT COMPOSITION” (JGC CATALYSTS AND CHEMICALS LTD., priority 2018, published 2021).

What was measured:
[1] = within 6 hours

## CCN(CC)C(=O)c1cccc(C)c1 [DEET, N,N-diethyl-m-toluamide]
[1]
  Transdermally absorbed proportion of DEET applied on the skin: about 50%
other
  Vapor pressure at 20°C (VP): 0.22 Pa
